Laboratory results published in US20240350464A1, “METHODS OF TREATING NEUROLOGICAL, MUSCULAR, AND PROLIFERATIVE DISORDERS” (Elixira Pharma AG, priority 2023, published 2024).

Experiments:
Assay type in all cases: in vivo, Caenorhabditis elegans
N2 wild type worms [1] = assay: Microfluidic reproduction monitoring (egg laying start/end, reproductive span, eggs laid); settings: for Eggs laid (#): average number of eggs laid per worm within the timespan of egg laying; for Eggs laid (#) / Egg laying end / Reproductive span: concentrations per Table 2; for Egg laying start: time from injection of L4 larvae until first egg, continuous exposure, concentrations per Table 2 (Cpd 1 100 μM, Cpd 2 25 mM); for Egg laying start / Egg laying end / Reproductive span: mean; for Egg laying end: time from injection of L4 larvae until last egg; for Reproductive span: timespan of egg laying; for Variation (%) of egg laying end (time of the last egg laid) / Variation (%) of egg laying start / Variation (%) of eggs laid / Variation (%) of reproductive span (timespan of egg laying): vs negative control DMSO 1%
Description: (§1) For the purpose of this study, the two compounds and four combinations of the two compounds were tested on a microfluidic platform. Worms were injected at the L4 larval stage, confined in dedicated microfluidic chambers, and continuously subjected to the presence of the two compounds, alone or in combination, from the L4 larval stage to the end of the experiment (corresponding to the day when the worm is dead). Acquisition of short sequences of videos for each microfluidic chamber containing worms were executed automatically every six (6) hours during the duration of the assay. The measurement of the motility, as well as the worm size to address compound toxicity (1) and the reproduction assessing longevity (2), were performed on the acquired sequences of videos by using an algorithm (3,4). Dead/live worms were identified automatically, based on the motility parameters. Each condition was tested in four technical replicates on different microfluidic cartridges. The experiment was performed once.
(§2) The proposed study was conducted according to the design and timeline depicted in FIG. 1. N2 wild-type C. elegans were grown on solid nematode growth medium (NGM) agar plates until the adult stage and harvested in complete S-Medium. Eggs from the adult population were hatched overnight in S-Medium and the resulting L1 progeny was recovered with a dedicated filter. L1 larvae were then collected through filtering in S-medium, seeded on NGM agar plates and grown for 48 hours (h) at 20° C. […] L4 larvae were then collected through filtering in 5 mL S-medium. 20 to 30 L4 were injected in the microfluidic chips for each condition. Worms were then continuously fed on-chip via bacterial medium, for the duration of the entire experiment. Videos of each micro-chamber were acquired after the feeding during the whole experiment, every 6 hours.
(§3) The two compounds, Compound 1 and Compound 2, were suspended in DMSO at the stock concentration of 100 mM and 2.5 M, respectively (Table 1). Compounds were then mixed with the bacterial medium at the targeted concentrations, alone or in combination (Table 2). For all tested conditions, the final vehicle (DMSO) concentration was 1%. For the negative control condition, nematodes were fed with a bacterial medium containing only the vehicle solution (DMSO 1%). All stock solutions were stored at −20° C. and dilutions were made freshly on the day of starting the on-chip experiment and then every 72 h to replace the compound/bacterial medium solutions.
Five time-resolved phenotypic readouts were extracted during the assays, including: • Worm size (area): this parameter was measured to evaluate the potential effects of the tested compound on growth retardation or larval arrest phenotype (7). • Sexual maturity: this parameter was measured to evaluate the potential effects of the tested compound on the timing required by a worm to reach the sexual maturity, determined by the observation of the first embryo (i.e., egg) produced in each microfluidic chamber.
Bar graphs represent mean+/−sem. p values were obtained by comparing the negative control (blue bars) versus the treatment via One-way ANOVA followed by Bonferroni's multiple comparisons test (p<0.05). * statistics versus the negative control (DMSO 1%).

N2 wild type worms [2] = assay: Microfluidic growth monitoring (worm size, area); settings: for effect on the worm's size (in words): vs negative control; for Variation (%) of worm area AUC: vs negative control DMSO 1%
Description: as §1
The proposed study was conducted according to the design and timeline depicted in FIG. 1. N2 wild-type C. elegans were grown on solid nematode growth medium (NGM) agar plates until the adult stage and harvested in complete S-Medium. Eggs from the adult population were hatched overnight in S-Medium and the resulting L1 progeny was recovered with a dedicated filter. L1 larvae were then collected through filtering in S-medium, seeded on NGM agar plates and grown for 48 hours (h) at 20° C. After 48 h, the worm population had reached the L4 larval stage. […]
Five time-resolved phenotypic readouts were extracted during the assays, including: • Worm size (area): this parameter was measured to evaluate the potential effects of the tested compound on growth retardation or larval arrest phenotype (7). • Sexual maturity: this parameter was measured to evaluate the potential effects of the tested compound on the timing required by a worm to reach the sexual maturity, determined by the observation of the first embryo (i.e., egg) produced in each microfluidic chamber. This phenotype was also indicative for a general sterility phenotype (i.e., no egg produced) (7). • Worm fertility: this parameter was measured to evaluate the potential effects of the tested compound on the average number of eggs produced by each worm during the reproductive span, calculated via the images acquired during the assay (7). • Reproductive span: this parameter was measured to evaluate the potential effects of the tested compound on the duration in which the worms have reproductive ability, determined by the observation of the last embryo produced in each microfluidic chamber. • Worm longevity: this parameter was measured to evaluate the potential effects of the tested compound on the worm's survival. […]

N2 wild type worms [3] = assay: Microfluidic motility monitoring (head, midbody, tail amplitude, bending frequency, velocity); settings: vs negative control; for overall motility: all motility parameters improved, in average: all 5 parameters
Description: as §1, §2, §3
Worm motility is an additional phenotypic readout, where five parameters of the motility were assessed every 6 hours from acquired videos (2 seconds long, 10 frames per second for each video). At each time point, the values recorded for dead worms were excluded. The five motility parameters monitored included (3): • the amplitude of the movement at the head • the amplitude of the movement at the middle of the worm body • the amplitude of tail movement • the worm bending frequency • the worm velocity
These motility parameters were analyzed by phases (Area Under the Curve calculation following by an 2-way ANOVA tests), as defined below: • Phase 1: from day 1 to day 5 • Phase 2: from day 6 to day 10 • Phase 3: from day 11 to day 15 • Phase 4: from day 16 to day 20

Row | SMILES | Eggs laid (#) (N2 wild type worms [1]) | Egg laying start (N2 wild type worms [1]) [h] | Egg laying end (N2 wild type worms [1]) [h] | Reproductive span (N2 wild type worms [1]) [h] | Variation (%) of egg laying end (time of the last egg laid) (N2 wild type worms [1]) | Variation (%) of egg laying start (N2 wild type worms [1]) [%] | Variation (%) of eggs laid (N2 wild type worms [1]) [%] | Variation (%) of reproductive span (timespan of egg laying) (N2 wild type worms [1]) | effect on the worm's size (in words) (N2 wild type worms [2]) | Variation (%) of worm area AUC (N2 wild type worms [2]) | overall motility: all motility parameters improved, in average (N2 wild type worms [3]) [%] | motility in Phase 1 (in words) (N2 wild type worms [3]; Phase 1 (D0 to D5)) | motility in Phase 2 (in words) (N2 wild type worms [3]; Phase 2 (D6 to D10)) | motility in Phase 3 (in words) (N2 wild type worms [3]; Phase 3 (D11 to D15)) | motility in Phase 4 (in words) (N2 wild type worms [3]; Phase 4 (D16 to D20)) | overall motility of the worms (in words) (N2 wild type worms [3]; 2-way ANOVA)
1 | CO[C@H]1C[C@@H]2CC[C@@H](C)[C@@](O)(O2)C(=O)C(=O)N2CCCC[C@H]2C(=O)O[C@H]([C@H](C)C[C@@H]2CC[C@@H](O)[C@H](OC)C2)CC(=O)[C@H](C)/C=C(\C)[C@@H](O)[C@@H](OC)C(=O)[C@H](C)C[C@H](C)/C=C/C=C/C=C/1C [Cpd 1, rapamycin] | 96.6 # | 29.59 | 144.0 | 114.4 | −3.1% | −3.2 | −32.9 | −3.1% | significant improvement | +0.8% | 14 | – | – | – | – | –
2 | CN(C)C(=N)N=C(N)N [Cpd 2, metformin] | 94.9 # | 29.63 | 152.7 | 123.1 | +2.8% | −3.1 | −34.1 | +4.3% | significant decrease | −3.3% | 22 | significant increase in almost all the motility parameters | significant increase in almost all the motility parameters | No effect on the motility | No effect on the motility | significantly increased
